Literature values as cited in US10299493B2, “Dietary supplement compositions with enhanced delivery matrix, gummies, chocolates, atomizers and powders containing same, and methods of making same” (priority 2013, dated 2019).

Details: temperature of 20° C.

In the case of `C/C=C/C=C/C(=O)[O-].[K+]` [Potassium sorbate], the solubility in water is listed as 58.2%.
